From patent US20230151003A1, “COMPOUNDS AND METHODS OF USE” (Exelixis, Inc., priority 2020, published 2023)
Where a name gives a salt, the structure may show the parent alone.

Biological target: KDR (Homo sapiens, UniProt P35968)
Experiment: KDR autophosphorylation ELISA in HUVEC cells
Type: cell-based
Parameters: endogenous in cells; host or cells: HUVEC (Lonza #C2519A)
Conditions: Table 3 Cellular Activities, VEGF165-stimulated, phospho-KDR ELISA
Summary of the method: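 HUVEC, 24 h serum-free starvation; cpd 8-pt dilution, 0.3% DMSO final, 1 h; VEGF165 100 ng/mL, 5 min; cold lysis; phospho-KDR ELISA; IC50, 4PL.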

Sequence of KDR (P35968 20-1356): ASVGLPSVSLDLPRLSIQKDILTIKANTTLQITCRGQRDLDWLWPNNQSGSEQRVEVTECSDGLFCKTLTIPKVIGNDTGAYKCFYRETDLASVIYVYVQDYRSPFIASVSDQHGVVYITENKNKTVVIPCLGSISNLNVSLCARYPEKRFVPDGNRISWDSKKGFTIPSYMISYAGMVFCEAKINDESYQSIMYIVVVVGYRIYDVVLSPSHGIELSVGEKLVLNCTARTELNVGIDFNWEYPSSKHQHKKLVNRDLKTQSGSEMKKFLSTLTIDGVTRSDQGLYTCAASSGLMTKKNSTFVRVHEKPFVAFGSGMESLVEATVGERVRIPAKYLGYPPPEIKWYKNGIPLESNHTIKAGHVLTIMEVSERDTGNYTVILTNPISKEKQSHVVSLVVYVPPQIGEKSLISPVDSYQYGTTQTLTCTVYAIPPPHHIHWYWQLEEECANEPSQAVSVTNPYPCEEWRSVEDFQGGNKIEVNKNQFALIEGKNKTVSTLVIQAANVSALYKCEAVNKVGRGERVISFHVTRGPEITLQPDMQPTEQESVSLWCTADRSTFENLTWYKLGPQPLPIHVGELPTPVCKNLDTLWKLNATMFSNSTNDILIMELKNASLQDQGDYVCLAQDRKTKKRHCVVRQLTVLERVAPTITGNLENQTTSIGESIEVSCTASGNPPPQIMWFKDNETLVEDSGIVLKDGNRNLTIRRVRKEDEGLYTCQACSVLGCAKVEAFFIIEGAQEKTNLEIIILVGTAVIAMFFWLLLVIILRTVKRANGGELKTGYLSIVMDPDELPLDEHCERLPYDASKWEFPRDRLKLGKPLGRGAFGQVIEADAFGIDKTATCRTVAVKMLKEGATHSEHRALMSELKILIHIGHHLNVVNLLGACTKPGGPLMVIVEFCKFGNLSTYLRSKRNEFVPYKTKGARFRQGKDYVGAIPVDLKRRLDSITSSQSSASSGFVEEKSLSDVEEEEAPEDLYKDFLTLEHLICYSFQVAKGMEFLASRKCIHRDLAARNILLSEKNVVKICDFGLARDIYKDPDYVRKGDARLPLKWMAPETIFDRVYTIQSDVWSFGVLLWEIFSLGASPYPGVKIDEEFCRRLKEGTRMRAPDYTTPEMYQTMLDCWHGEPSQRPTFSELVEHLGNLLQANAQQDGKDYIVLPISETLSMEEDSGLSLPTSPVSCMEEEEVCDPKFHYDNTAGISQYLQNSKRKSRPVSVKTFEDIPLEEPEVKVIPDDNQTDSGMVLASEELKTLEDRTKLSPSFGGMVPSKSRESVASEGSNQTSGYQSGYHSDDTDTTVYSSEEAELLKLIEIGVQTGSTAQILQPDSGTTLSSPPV

SMILES	IC50 [nM]
COc1cc2nccc(Oc3ccc(NC(=O)c4c(C)n(C)c(C)c(-c5cccs5)c4=O)cc3)c2nc1OC [Compound 167, N-[4-[(6,7-Dimethoxy-1,5-naphthyridin-4-yl)oxy]phenyl]-1,2,6-trimethyl-4-oxo-5-thiophen-2-ylpyridine-3-carboxamide]	300 to 1000
COc1cc2nccc(Oc3ccc(NC(=O)c4cnc(C)c(-c5cc(C(F)(F)F)nn5C)c4O)cc3F)c2nc1OC [Compound 105]	≤ 100
COc1cnc2c(Oc3ccc(NC(=O)c4c(C)n(C)c(C)c(-c5cccs5)c4=O)cc3F)ccnc2c1 [Compound 166, N-[3-Fluoro-4-[(7-methoxy-1,5-naphthyridin-4-yl)oxy]phenyl]-1,2,6-trimethyl-4-oxo-5-thiophen-2-ylpyridine-3-carboxamide]	300 to 1000
COc1cc2nccc(Oc3ccc(NC(=O)c4cnc(C)c(-c5sccc5C)c4O)cc3F)c2nc1OC [Compound 103, N-[4-[(6,7-Dimethoxy-1,5-naphthyridin-4-yl)oxy]-3-fluoro-phenyl]-4-hydroxy-6-methyl-5-(3-methyl-2-thienyl) pyridine-3-carboxamide]	≤ 100
COc1cc2nccc(Oc3ccc(NC(=O)c4c(C)n(C)c(C)c(-c5cccs5)c4=O)cc3F)c2nc1OC [Compound 168, N-[4-[(6,7-Dimethoxy-1,5-naphthyridin-4-yl)oxy]-3-fluorophenyl]-1,2,6-trimethyl-4-oxo-5-thiophen-2-ylpyridine-3-carboxamide]	≤ 100
COc1cc2nccc(Oc3ccc(NC(=O)c4c(C)nc(C)c(-c5ccc(C6CC6)o5)c4O)cc3F)c2nc1OC [Compound 155B, 5-(5-Cyclopropylfuran-2-yl)-N-[4-[(6,7-dimethoxy-1,5-naphthyridin-4-yl)oxy]-3-fluorophenyl]-4-hydroxy-2,6-dimethylpyridine-3-carboxamide]	≤ 100
COc1cc2nccc(Oc3ccc(NC(=O)c4cnc(C)c(-c5cnoc5)c4O)cc3F)c2nc1OC [Compound 140, N-[4-[(6,7-Dimethoxy-1,5-naphthyridin-4-yl)oxy]-3-fluorophenyl]-4-hydroxy-6-methyl-5-(1,2-oxazol-4-yl)pyridine-3-carboxamide]	≤ 100
COc1cc2nccc(Oc3ccc(NC(=O)c4cn(CCF)c(C)c(-c5ccco5)c4=O)cc3F)c2nc1OC [Compound 333, N-[4-[(6,7-Dimethoxy-1,5-naphthyridin-4-yl)oxy]-3-fluorophenyl]-1-(2-fluoroethyl)-5-(furan-2-yl)-6-methyl-4-oxopyridine-3-carboxamide]	100 to 300
COc1cc2nccc(Oc3ccc(NC(=O)c4cnc(C)c(-c5ccsc5)c4O)cc3F)c2nc1OC [Compound 93, N-[4-[(6,7-Dimethoxy-1,5-naphthyridin-4-yl)oxy]-3-fluoro-phenyl]-4-hydroxy-6-methyl-5-(3-thienyl)pyridine-3-carboxamide]	≤ 100
C=Cc1ccc(-c2c(C)ncc(C(=O)Nc3ccc(Oc4ccnc5cc(OC)c(OC)nc45)c(F)c3)c2O)o1 [Compound 151, N-[4-[(6,7-Dimethoxy-1,5-naphthyridin-4-yl)oxy]-3-fluorophenyl]-5-(5-ethenylfuran-2-yl)-4-hydroxy-6-methylpyridine-3-carboxamide]	≤ 100
CCc1ccc(-c2c(C)nc(C)c(C(=O)Nc3ccc(Oc4ccnc5cc(OC)c(OC)nc45)c(F)c3)c2O)o1 [Compound 147, N-[4-[(6,7-Dimethoxy-1,5-naphthyridin-4-yl)oxy]-3-fluorophenyl]-5-(5-ethylfuran-2-yl)-4-hydroxy-2,6-dimethylpyridine-3-carboxamide]	≤ 100
COc1cc2nccc(Oc3ccc(NC(=O)c4cnc(C)c(-c5ccnn5C)c4O)cc3F)c2nc1OC [Compound 104]	≤ 100
C=CCc1ccc(-c2c(C)ncc(C(=O)Nc3ccc(Oc4ccnc5cc(OC)c(OC)nc45)c(F)c3)c2O)o1 [Compound 155, N-[4-[(6,7-Dimethoxy-1,5-naphthyridin-4-yl)oxy]-3-fluorophenyl]-4-hydroxy-6-methyl-5-(5-prop-2-enylfuran-2-yl)pyridine-3-carboxamide]	≤ 100
COCc1nc(C)c(-c2ccc(C)o2)c(O)c1C(=O)Nc1ccc(Oc2ccnc3cc(OC)c(OC)nc23)c(F)c1 [Compound 117, N-[4-[(6,7-Dimethoxy-1,5-naphthyridin-4-yl)oxy]-3-fluorophenyl]-4-hydroxy-2-(methoxymethyl)-6-methyl-5-(5-methylfuran-2-yl)pyridine-3-carboxamide]	≤ 100
COc1cc2nccc(Oc3ccc(NC(=O)c4c(C)nc(C)c(-c5ccoc5)c4O)cc3F)c2nc1OC [Compound 112, N-[4-[(6,7-Dimethoxy-1,5-naphthyridin-4-yl)oxy]-3-fluoro-phenyl]-5-(3-furyl)-4-hydroxy-2,6-dimethyl-pyridine-3-carboxamide]	≤ 100
COc1ccc2nccc(Oc3ccc(NC(=O)c4cnc(C)c(-c5cccs5)c4O)cc3F)c2n1 [Compound 128, N-[3-Fluoro-4-[(6-methoxy-1,5-naphthyridin-4-yl)oxy]phenyl]-4-hydroxy-6-methyl-5-thiophen-2-ylpyridine-3-carboxamide]	≤ 100
COc1cc2nccc(Oc3ccc(NC(=O)c4cnc(C)c(-c5ccc(C6CC6)o5)c4O)cc3F)c2nc1OC [Compound 155A, 5-(5-Cyclopropylfuran-2-yl)-N-[4-[(6,7-dimethoxy-1,5-naphthyridin-4-yl)oxy]-3-fluorophenyl]-4-hydroxy-6-methylpyridine-3-carboxamide hydrochloride]	≤ 100
COc1cnc2c(Oc3ccc(NC(=O)c4cnc(C)c(-c5cc(C)cs5)c4O)cc3F)ccnc2c1 [Compound 102, N-[3-Fluoro-4-[(7-methoxy-1,5-naphthyridin-4-yl)oxy]phenyl]-4-hydroxy-6-methyl-5-(4-methyl-2-thienyl) pyridine-3-carboxamide]	≤ 100
COc1ccc2nccc(Oc3ccc(NC(=O)c4cnc(C)c(-c5ccco5)c4O)cc3F)c2n1 [Compound 118, N-[3-Fluoro-4-[(6-methoxy-1,5-naphthyridin-4-yl)oxy]phenyl]-5-(furan-2-yl)-4-hydroxy-6-methylpyridine-3-carboxamide]	≤ 100

Second part, the compound after the results:

IC50 [nM]	SMILES
≤ 100	COc1cc2nccc(Oc3ccc(NC(=O)c4c(C)nc(C)c(-c5ccc(C)o5)c4O)cc3F)c2nc1OC [Compound 110, N-[4-[(6,7-Dimethoxy-1,5-naphthyridin-4-yl)oxy]-3-fluoro-phenyl]-4-hydroxy-2,6-dimethyl-5-(5-methyl-2-furyl)pyridine-3-carboxamide]
≤ 100	COc1cc2nccc(Oc3ccc(NC(=O)c4c(C)nc(C)c(-c5cc(C)nn5C)c4O)cc3F)c2nc1OC [Compound 109, N-[4-[(6,7-Dimethoxy-1,5-naphthyridin-4-yl)oxy]-3-fluoro-phenyl]-5-(2,5-dimethylpyrazol-3-yl)-4-hydroxy-2,6-dimethyl-pyridine-3-carboxamide]
≤ 100	COc1cc2nccc(Oc3ccc(NC(=O)c4c(C)nc(C)c(-c5cc(C)cs5)c4O)cc3F)c2nc1OC [Compound 137, N-[4-[(6,7-Dimethoxy-1,5-naphthyridin-4-yl)oxy]-3-fluorophenyl]-4-hydroxy-2,6-dimethyl-5-(4-methylthiophen-2-yl)pyridine-3-carboxamide]
≤ 100	COc1cc2nccc(Oc3ccc(NC(=O)c4c(C)nc(C)c(-c5ccnn5C)c4O)cc3F)c2nc1OC [Compound 108, N-[4-[(6,7-Dimethoxy-1,5-naphthyridin-4-yl)oxy]-3-fluoro-phenyl]-4-hydroxy-2,6-dimethyl-5-(2-methylpyrazol-3-yl) pyridine-3-carboxamide]
≤ 100	COCc1nc(C)c(-c2ccccn2)c(O)c1C(=O)Nc1ccc(Oc2ccnc3cc(OC)c(OC)nc23)c(F)c1 [Compound 195, N-[4-[(6,7-Dimethoxy-1,5-naphthyridin-4-yl)oxy]-3-fluorophenyl]-4-hydroxy-2-(methoxymethyl)-6-methyl-5-pyridin-2-ylpyridine-3-carboxamide]
≤ 100	COc1cc2nccc(Oc3ccc(NC(=O)c4cnc(C)c(-c5ccc(C)s5)c4O)cc3F)c2nc1OC [Compound 94, N-[4-[(6,7-Dimethoxy-1,5-naphthyridin-4-yl)oxy]-3-fluoro-phenyl]-4-hydroxy-6-methyl-5-(5-methyl-2-thienyl) pyridine-3-carboxamide]
≤ 100	COc1cnc2c(Oc3ccc(NC(=O)c4cnc(C)c(-c5ccco5)c4O)cc3)ccnc2c1 [Compound 129, 5-(Furan-2-yl)-4-hydroxy-N-[4-[(7-methoxy-1,5-naphthyridin-4-yl)oxy]phenyl]-6-methylpyridine-3-carboxamide]
≤ 100	COc1cnc2c(Oc3ccc(NC(=O)c4cnc(C)c(-c5ccoc5)c4O)cc3F)ccnc2c1 [Compound 99, N-[3-Fluoro-4-[(7-methoxy-1,5-naphthyridin-4-yl)oxy]phenyl]-5-(3-furyl)-4-hydroxy-6-methyl-pyridine-3-carboxamide]
≤ 100	COc1cc2nccc(Oc3ccc(NC(=O)c4c(C)nc(C)c(-c5ccc(C(C)C)o5)c4O)cc3F)c2nc1OC [Compound 148, N-[4-[(6,7-Dimethoxy-1,5-naphthyridin-4-yl)oxy]-3-fluorophenyl]-4-hydroxy-2,6-dimethyl-5-(5-propan-2-ylfuran-2-yl)pyridine-3-carboxamide]
≤ 100	COc1cc2nccc(Oc3ccc(NC(=O)c4c(C)ncc(-c5ccsc5)c4O)cc3F)c2nc1OC [Compound 127, N-[4-[(6,7-Dimethoxy-1,5-naphthyridin-4-yl)oxy]-3-fluorophenyl]-4-hydroxy-2-methyl-5-thiophen-3-ylpyridine-3-carboxamide]
≤ 100	COc1cnc2c(Oc3ccc(NC(=O)c4cnc(C)c(-c5ccc(C)s5)c4O)cc3F)ccnc2c1 [Compound 101, N-[3-Fluoro-4-[(7-methoxy-1,5-naphthyridin-4-yl)oxy]phenyl]-4-hydroxy-6-methyl-5-(5-methyl-2-thienyl) pyridine-3-carboxamide]
